Test results as given in ChEMBL document CHEMBL1201862, “PubChem BioAssay data set” (2004).
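Values below derive from 48-hour exposures of cells grown in 96-well plates, with endpoints linearly interpolated between the two concentrations bracketing the appropriate inhibition level. GI50 = concentration required for 50% inhibition of growth.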 The source made the active and inactive calls. Cut-off read from the data, not from the text of the source: active = GI50 up to about 1.1 µM and inactive = higher.

What was measured:
Test in all cases: NCI anticancer screen, dose series, 48 h
RXF 393 = tested on: RXF 393
HOP-92 = tested on: HOP-92
UO-31 = tested on: UO-31
LOX IMVI = tested on: LOX IMVI
DMS-114 = tested on: DMS-114
NCI-H460 = tested on: NCI-H460
CCRF-CEM = tested on: CCRF-CEM
SK-MEL-5 = tested on: SK-MEL-5
HCT-15 = tested on: HCT-15
SK-OV-3 = tested on: SK-OV-3
HCC 2998 = tested on: HCC 2998
KM-20L2 = tested on: KM-20L2
RPMI-8226 = tested on: RPMI-8226
MCF7 = tested on: MCF7
SW-620 = tested on: SW-620
SF-295 = tested on: SF-295
HCT-116 = tested on: HCT-116
OVCAR-8 = tested on: OVCAR-8
KM12 = tested on: KM12
MDA-N = tested on: MDA-N
786-0 = tested on: 786-0
HT-29 = tested on: HT-29
TK-10 = tested on: TK-10
DLD-1 = tested on: DLD-1
COLO 205 = tested on: COLO 205
SF-539 = tested on: SF-539
UACC-257 = tested on: UACC-257
Hs-578T = tested on: Hs-578T
M14 = tested on: M14
SNB-78 = tested on: SNB-78
HOP-62 = tested on: HOP-62
IGROV-1 = tested on: IGROV-1
NCI-H226 = tested on: NCI-H226
OVCAR-5 = tested on: OVCAR-5
U-251 = tested on: U-251
DMS-273 = tested on: DMS-273
PC-3 = tested on: PC-3
NCI-H522 = tested on: NCI-H522
SR = tested on: SR
A549 = tested on: A549
MDA-MB-435 = tested on: MDA-MB-435
M19-MEL = tested on: M19-MEL
OVCAR-4 = tested on: OVCAR-4
K562 = tested on: K562
MOLT-4 = tested on: MOLT-4
SNB-75 = tested on: SNB-75
SK-MEL-28 = tested on: SK-MEL-28
T47D = tested on: T47D
MDA-MB-231 = tested on: MDA-MB-231
NCI/ADR-RES = tested on: NCI/ADR-RES
OVCAR-3 = tested on: OVCAR-3
UACC-62 = tested on: UACC-62
A498 = tested on: A498
EKVX = tested on: EKVX
SNB-19 = tested on: SNB-19
SK-MEL-2 = tested on: SK-MEL-2
BT-549 = tested on: BT-549
HL-60 = tested on: HL-60
DU-145 = tested on: DU-145
RXF 631 = tested on: RXF 631
ACHN = tested on: ACHN
NCI-H23 = tested on: NCI-H23
SF-268 = tested on: SF-268
SN12C = tested on: SN12C
CAKI-1 = tested on: CAKI-1
HOP-18 = tested on: HOP-18
Malme-3M = tested on: Malme-3M
LXFL 529 = tested on: LXFL 529

Measured: GI50

Cc1c(N(C)C)ccc2c(=O)c3cccc(CC(=O)O)c3oc12
> 100 µM: HCT-15
inactive: RXF 393 > 100 µM | HOP-92 > 64.9 µM | UO-31 > 100 µM | LOX IMVI > 100 µM | DMS-114 > 100 µM | NCI-H460 > 100 µM | CCRF-CEM > 100 µM | SK-MEL-5 > 75.3 µM | SK-OV-3 > 100 µM | HCC 2998 > 100 µM | KM-20L2 > 100 µM | RPMI-8226 > 100 µM | MCF7 > 100 µM | SW-620 > 33.3 µM | SF-295 > 100 µM | HCT-116 > 100 µM | OVCAR-8 > 100 µM | KM12 > 100 µM | MDA-N > 100 µM | 786-0 > 100 µM | HT-29 > 100 µM | TK-10 > 100 µM | DLD-1 > 100 µM | COLO 205 > 100 µM | SF-539 > 100 µM | UACC-257 > 100 µM | Hs-578T > 100 µM | M14 > 100 µM | SNB-78 > 100 µM | HOP-62 > 100 µM | IGROV-1 > 100 µM | NCI-H226 > 100 µM | OVCAR-5 > 100 µM | U-251 > 100 µM | DMS-273 > 100 µM | PC-3 > 100 µM | NCI-H522 > 100 µM | SR > 100 µM | A549 > 100 µM | MDA-MB-435 > 100 µM | M19-MEL > 100 µM | OVCAR-4 > 100 µM | K562 > 100 µM | MOLT-4 > 100 µM | SNB-75 > 100 µM | SK-MEL-28 > 100 µM | T47D > 100 µM | MDA-MB-231 > 100 µM | NCI/ADR-RES > 100 µM | OVCAR-3 > 100 µM | UACC-62 > 100 µM | A498 > 81.8 µM | EKVX > 100 µM | SNB-19 > 43.4 µM | SK-MEL-2 > 100 µM | BT-549 65.2 µM | HL-60 97.9 µM | DU-145 > 100 µM | RXF 631 > 100 µM | ACHN > 100 µM | NCI-H23 > 100 µM | SF-268 > 100 µM | SN12C > 100 µM | CAKI-1 > 100 µM | HOP-18 > 100 µM | Malme-3M > 100 µM

COC(=O)NNc1c([N+](=O)[O-])cnn(-c2ccccc2)c1=O
2.45 µM: HCT-15
active: CCRF-CEM 0.302 µM | SW-620 1.07 µM | NCI-H522 0.995 µM | SR 0.497 µM | K562 1.04 µM | MOLT-4 0.815 µM
inactive: RXF 393 3.73 µM | HOP-92 2.18 µM | UO-31 8.93 µM | LOX IMVI 1.66 µM | DMS-114 3.37 µM | NCI-H460 3.96 µM | SK-MEL-5 4.07 µM | SK-OV-3 9.71 µM | HCC 2998 5.36 µM | KM-20L2 3.37 µM | RPMI-8226 2.44 µM | MCF7 3.99 µM | SF-295 3.46 µM | HCT-116 1.78 µM | OVCAR-8 1.78 µM | KM12 5.19 µM | MDA-N 2.85 µM | 786-0 3.32 µM | HT-29 2.04 µM | TK-10 18.1 µM | DLD-1 2.06 µM | COLO 205 2.11 µM | SF-539 3.29 µM | UACC-257 2.51 µM | Hs-578T 4.53 µM | M14 1.8 µM | HOP-62 7.21 µM | IGROV-1 17.9 µM | NCI-H226 4.19 µM | OVCAR-5 4.44 µM | U-251 2.62 µM | DMS-273 1.98 µM | PC-3 1.79 µM | A549 12.4 µM | MDA-MB-435 1.66 µM | M19-MEL 1.87 µM | OVCAR-4 2.07 µM | SNB-75 7.48 µM | SK-MEL-28 3.83 µM | T47D 2.21 µM | LXFL 529 1.73 µM | OVCAR-3 1.97 µM | UACC-62 2.11 µM | A498 27.3 µM | EKVX 3.82 µM | SNB-19 10.5 µM | SK-MEL-2 2.95 µM | BT-549 1.82 µM | HL-60 1.39 µM | DU-145 5.62 µM | RXF 631 2.08 µM | ACHN 4.44 µM | NCI-H23 2.67 µM | SF-268 3.1 µM | SN12C 1.99 µM | CAKI-1 3.98 µM | HOP-18 2.82 µM | Malme-3M 2.47 µM
